# Measured values taken from US10407467B2, “Polymyxin derivatives and their use in combination therapy together with different antibiotics” (priority 2013, dated 2019).
# Bridge positions count the residues as written; N and C are the ends. Square brackets hold non-standard residues; d marks the D form. Peptide text beside a SMILES is read from it. * marks the point of attachment. ξ: configuration not given here. Thr(3ξ) = CC(O)[C@H](N)C(=O)O; Dab = NCC[C@H](N)C(=O)O; X16 = CN(C)CCCC(=O)*; X15 = O=C(C1CCNC1)*; Ava = NCCCCC(=O)O
# How the values were obtained:
# Type in all cases: cell-based
# Pseudomonas aeruginosa [1] = experiment: MIC, compound in combination with a second agent (broth microdilution); settings: 1:1 (wt:wt) combination with Rifampicin; MIC = total drug concentration; strain CCUG 59626
# Description: (§1) To evaluate the potency and spectrum of the compounds both alone and in combination with another agent, susceptibility testing was performed against up to four strains of each of the four Gram negative pathogens, Escherichia coli, Pseudomonas aeruginosa, Klebsiella pneumoniae and Acinetobacter baumannii.
# (§2) Ratios of components in a combination, such as 1:1, refers to a weight to weight ratio. The minimum inhibitory concentration (MIC) refers to the total drug concentration (e.g. test compound plus second agent, such as Rifampicin).
# (§3) The inoculum was prepared by making a direct suspension of isolated colonies (selected from an 18-24 hour Mueller-Hinton agar plate) adjusted to the 0.5 McFarland standard.
# (§4) The assays were performed in duplicate.
# (§5) In cases where the duplicate values varied by less than 2-fold, the lower of the two values is reported. If a variation of greater than 2-fold was observed, the assay was considered non-valid. Several of the compounds were subjected to multiple tests, and where this is the case, the MIC reflects the modal value obtained.
# (§6) The minimum inhibitory concentration refers to the total drug concentration (e.g. test compound plus Rifampicin). The compounds are used at equal mass within the combination. The weight refers to the mass of compound as used, for example the Example Compounds are used in their TFA or sulphate salt forms.
# (§7) MICs refer to the total drug concentration. Thus, where a 1:1 combination is used, this is the amount of the test compound plus the second agent. For comparison, the MIC values for the second agent alone are also given.
# Klebsiella pneumoniae [2] = experiment: as above; settings: 1:1 (wt:wt) combination with Rifampicin, MIC = total drug concentration; for MIC K. pneumoniae ATCC-BAA-2146: strain ATCC-BAA-2146; for MIC K. pneumoniae CCUG-59348: strain CCUG-59348; for MIC K. pneumoniae NCTC 13438: strain NCTC 13438
# Description: as §1, §2, §3, §4, §5, §6, §7
# Acinetobacter baumannii [3] = experiment: as above; settings: 1:1 (wt:wt) combination with Rifampicin; MIC = total drug concentration; strain NCTC 13424
# Description: as §1, §2, §3, §4, §5, §6, §7
# Pseudomonas aeruginosa [4] = experiment: MIC, sole activity (no second agent); settings: for MIC P. aeruginosa ATCCCRM-9027: strain ATCCCRM-9027
# Method in brief: (§8)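 First, isolated colonies grown 18-24 hours on Mueller-Hinton agar were suspended to 0.5 McFarland; next, up to four strains per pathogen were tested in duplicate in cation-adjusted MHB; finally, the lower concordant value or modal repeat value was reported against Polymyxin B.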
# Klebsiella pneumoniae [5] = experiment: MIC, sole activity (no second agent)
# Method in brief: as §8
# Escherichia coli = experiment: MIC, sole activity (no second agent)
# Method in brief: as §8
# Acinetobacter baumannii [6] = experiment: MIC, sole activity (no second agent); settings: for MIC A. baumannii ATCCBAA-747 / MIC A. baumannii NCTC 13423: in the absence of Rifampicin; for MIC A. baumannii ATCCBAA-747: strain ATCCBAA-747; for MIC A. baumannii NCTC 13423: strain NCTC13423; for MIC A. baumannii ATCC BAA-747 / MIC A. baumannii NCTC 13424: Table 6A, no second agent, different supplier of Cation-adjusted MHB
# Method in brief: as §8
# [7] = in the absence of Rifampicin, strain ATCC27853
# [8] = in the absence of Rifampicin, strain ATCC 4352
# [9] = in the absence of Rifampicin, strain ATCC25922
# [10] = Table 6A, no second agent, different supplier of Cation-adjusted MHB
Compound,MIC P. aeruginosa CCUG 59626 (Pseudomonas aeruginosa [1]),MIC K. pneumoniae ATCC-BAA-2146 (Klebsiella pneumoniae [2]),MIC K. pneumoniae CCUG-59348 (Klebsiella pneumoniae [2]),MIC A. baumannii NCTC 13424 (Acinetobacter baumannii [3]),MIC P. aeruginosa ATCC 27853 (Pseudomonas aeruginosa [4]; [7]),MIC K. pneumoniae ATCC 4352 (Klebsiella pneumoniae [5]; [8]),MIC E. coli ATCC25922 (Escherichia coli; [9]),MIC P. aeruginosa ATCCCRM-9027 (Pseudomonas aeruginosa [4]; in the absence of Rifampicin),"MIC E. coli NCTC9001 (Escherichia coli; in the absence of Rifampicin, strain NCTC9001)",MIC A. baumannii ATCCBAA-747 (Acinetobacter baumannii [6]),MIC A. baumannii NCTC 13423 (Acinetobacter baumannii [6]),MIC K. pneumoniae NCTC 13438 (Klebsiella pneumoniae [2]),MIC P. aeruginosa ATCC 27853 (Pseudomonas aeruginosa [4]; [10]),MIC P. aeruginosa CCUG 59347 (Pseudomonas aeruginosa [4]; [10]),MIC K. pneumoniae ATCC 4352 (Klebsiella pneumoniae [5]; [10]),MIC K. pneumoniae ATCC BAA-2146 (Klebsiella pneumoniae [5]; [10]),MIC E. coli ATCC25922 (Escherichia coli; [10]),MIC E. coli NCTC 13441 (Escherichia coli; [10]),MIC A. baumannii ATCC BAA-747 (Acinetobacter baumannii [6]),MIC A. baumannii NCTC 13424 (Acinetobacter baumannii [6])
"CC(C)C[C@@H]1NC(=O)[C@@H](Cc2ccccc2)NC(=O)[C@H](CCN)NC(=O)[C@@H](NC(=O)[C@H](CCN)NC(=O)[C@@H](NC(=O)CC(C)O)C(C)O)CCNC(=O)[C@H](C(C)O)NC(=O)[C@H](CCN)NC(=O)[C@H](CCN)NC1=O (mixture of isomers) [Example 15, 3(RS)-3- Hydroxybutanoyl polymyxin B nonapeptide]",0.5 micrograms/mL,4 micrograms/mL,16 micrograms/mL,0.5 micrograms/mL,0.5 micrograms/mL,8 micrograms/mL,4 micrograms/mL,,,,,,,,,,,,,
"CC(C)C[C@@H]1NC(=O)[C@@H](Cc2ccccc2)NC(=O)[C@H](CCN)NC(=O)[C@@H](NC(=O)[C@H](CCN)NC(=O)[C@@H](NC(=O)CCCCN)C(C)O)CCNC(=O)[C@H](C(C)O)NC(=O)[C@H](CCN)NC(=O)[C@H](CCN)NC1=O (stereo partly drawn) [Example 6, 5-Aminopentanoyl polymyxin B nonapeptide] (H-[Ava][Thr(3ξ)][Dab][Dab][Dab][dF]L[Dab][Dab][Thr(3ξ)]; lactam 4-C)",≤0.06 micrograms/mL,,4 micrograms/mL,,0.25 micrograms/mL,0.5 micrograms/mL,2 micrograms/mL,0.125 micrograms/mL,2 micrograms/mL,8 micrograms/mL,4 micrograms/mL,,,,,,,,,
"CC(C)C[C@@H]1NC(=O)[C@@H](Cc2ccccc2)NC(=O)[C@H](CCN)NC(=O)[C@@H](NC(=O)[C@H](CCN)NC(=O)[C@@H](NC(=O)C2CCNC2)C(C)O)CCNC(=O)[C@H](C(C)O)NC(=O)[C@H](CCN)NC(=O)[C@H](CCN)NC1=O (stereo partly drawn) [Example 9, [3(R,S)-Pyrrolidine-3-carbonyl]polymyxin B nonapeptide] (X15-[Thr(3ξ)][Dab][Dab][Dab][dF]L[Dab][Dab][Thr(3ξ)]; lactam 3-C)",0.125 micrograms/mL,1 micrograms/mL,8 micrograms/mL,,0.25 micrograms/mL,0.5 micrograms/mL,0.5 micrograms/mL,2 micrograms/mL,,4 micrograms/mL,2 micrograms/mL,0.25 micrograms/mL,,,,,,,,
"CC(C)C[C@@H]1NC(=O)[C@@H](Cc2ccccc2)NC(=O)[C@H](CCN)NC(=O)[C@@H](NC(=O)[C@H](CCN)NC(=O)[C@@H](NC(=O)CCCN(C)C)C(C)O)CCNC(=O)[C@H](C(C)O)NC(=O)[C@H](CCN)NC(=O)[C@H](CCN)NC1=O (stereo partly drawn) [Example 11, 4-(N,N-dimethylamino)-butanoyl polymyxin B nonapeptide] (X16-[Thr(3ξ)][Dab][Dab][Dab][dF]L[Dab][Dab][Thr(3ξ)]; lactam 3-C)",0.25 micrograms/mL,0.5 micrograms/mL,4 micrograms/mL,,0.125 micrograms/mL,0.5 micrograms/mL,0.5 micrograms/mL,2 micrograms/mL,,16 micrograms/mL,4 micrograms/mL,1 micrograms/mL,,,,,,,,
"[3(R,S)-3-Amino-3- cyclohexanepropanoyl]-L- Phe- polymyxin B nonapeptide isomer 1 [Example A20]",,,,,,,,,,,,,>8 micrograms/mL,>8 micrograms/mL,>8 micrograms/mL,>8 micrograms/mL,>8 micrograms/mL,>8 micrograms/mL,>8 micrograms/mL,>8 micrograms/mL
"[3(R,S)-3-Amino-3- cyclohexanepropanoyl]-L- Phe- polymyxin B nonapeptide isomer 2 [Example A21]",,,,,,,,,,,,,>8 micrograms/mL,>8 micrograms/mL,>8 micrograms/mL,>8 micrograms/mL,>8 micrograms/mL,>8 micrograms/mL,>8 micrograms/mL,>8 micrograms/mL
"[3(R,S)-3-Amino-3- cyclohexanepropanoyl]-L- Pro- polymyxin B nonapeptide isomer 1 [Example A8]",,,,,,,,,,,,,2 micrograms/mL,4 micrograms/mL,>8 micrograms/mL,,>8 micrograms/mL,>8 micrograms/mL,>8 micrograms/mL,>8 micrograms/mL
"[3(R,S)-3-Amino-3- cyclohexanepropanoyl]-L- Pro- polymyxin B nonapeptide isomer 2 [Example A9]",,,,,,,,,,,,,2 micrograms/mL,>8 micrograms/mL,>8 micrograms/mL,,>8 micrograms/mL,>8 micrograms/mL,>8 micrograms/mL,>8 micrograms/mL
"[3(R,S)-3-Amino-3- cyclohexanepropanoyl]-L- Ser- polymyxin B nonapeptide [Example A11]",,,,,,,,,,,,,1 micrograms/mL,2 micrograms/mL,8 micrograms/mL,,>8 micrograms/mL,8 micrograms/mL,4 micrograms/mL,4 micrograms/mL
"[3(R,S)-3-Amino-3- cyclohexanepropanoyl]-L- Tyr- polymyxin B nonapeptide [Example A27]",,,,,,,,,,,,,,4 micrograms/mL,>8 micrograms/mL,>8 micrograms/mL,>8 micrograms/mL,>8 micrograms/mL,8 micrograms/mL,>8 micrograms/mL
"[3(R,S)-3-Amino-3- cyclohexanepropanoyl]-[4R- 4-hydroxy-L-Pro]-polymyxin B nonapeptide [Example A12]",,,,,,,,,,,,,2 micrograms/mL,4 micrograms/mL,>8 micrograms/mL,,>8 micrograms/mL,>8 micrograms/mL,8 micrograms/mL,8 micrograms/mL
